Source: paper PMC9866728, “Dosing Methods to Enable Cell-Based In Vitro Testing of Complex Substances: A Case Study with a PAH Mixture” (Toxics, 2022)
“And” between values parts separate entries of the source, which are not always exact repeats. Equal entries are not always repeated. Where two headings read alike, the source gives them in different places.

Experiments:
[1] = Loading kinetics of silicone micro-O-rings from methanol PAH solution (GC-MS/MS); type: physicochemical
[2] = Recovery over time from exposure to cell culture media without cells (GC-MS/MS); type: physicochemical
[3] = O-ring loading rate constant, larger O-rings; ref Smith et al. 2010 [24]; cited from earlier work
[4] = Smith et al. O-Rings; ref Smith et al. 2010 [24]; cited from earlier work

Compound | Half-time Value [1] | K Value [1] | Plateau Value [1] | Span Value [1] | Tau Value [1] | Y0 [1] | Half-time [2] | K [2] | Tau [2] | best-fit rate constants (micro-O-ring loading) [1] | Smith et al. 2010 K Value [3] | K [4]
c1cc2ccc3ccc4ccc5cccc6c(c1)c2c3c4c56 [Benzo[g,h,i]perylene] | 0.01297 | 53.4605 | 0.06193 | 0.06193 | 0.01871 | 0 | 1.63 |  |  |  |  | 
c1ccc2c(c1)-c1cccc3c1c-2cc1ccccc13 [Benzo[b]fluoranthene] | 0.02358 | 29.3997 | 0.1089 | 0.1089 | 0.03401 | 0 | 1.392 |  |  |  |  | 
c1ccc(-c2ccccc2)cc1 [Biphenyl] | 0.02096 | 33.0653 | 0.6997 | 0.6997 | 0.03024 | 0 | 0.591 | 1.298 and 1.173 and 1.091 | 0.7703 and 0.8527 and 0.917 |  |  | 
c1ccc2c(c1)-c1ccc3ccc4cccc5cc-2c1c3c45 [Indeno[1,2,3-cd]pyrene] | 0.01649 | 42.0316 | 0.0758 | 0.0758 | 0.02379 | 0 | 2.714 |  |  |  |  | 
Cc1ccc2ccccc2c1 [2-Methylnaphthalene] | 0.02597 | 26.6855 | 0.8914 | 0.8914 | 0.03747 | 0 | 0.5872 | 1.206 and 1.18 and 0.9072 | 0.8294 and 0.8472 and 1.102 | 26.7 h⁻¹ |  | 
c1ccc2c(c1)ccc1c3ccccc3ccc21 [Chrysene] | 4.881 | 0.142 | 0.1581 | 0.1581 | 7.042 | 0 | 77098 |  |  |  | 1.37 | 
c1cc2ccc3cccc4ccc(c1)c2c34 [Pyrene] | 0.03121 | 22.209 | 0.4017 | 0.4017 | 0.04503 | 0 | 0.6521 |  |  |  | 1.35 | 1.04
